Experimental data from patent US7488740B2, “Substituted quinolin-4-ylamine analogues” (Neurogen Corporation, priority 2003, dated 2009).

Target: T1, human capsaicin receptor (Homo sapiens, UniProt Q8NER1)
T1 construct: A cDNA encoding full length human capsaicin receptor recited in U.S. Pat. No. 6,482,611 was subcloned in the plasmid pBK-CMV; expressed in transfected cells
Assay: Calcium mobilization assay (Example 6)
Type: cell-based
Settings: concentration required to provide a 50% decrease in the fluorescence response of cells exposed to one IC50 of capsaicin
Experimental: Human embryonic kidney (HEK293) cells were transfected with the pBK-CMV expression construct encoding the full length human capsaicin receptor using standard methods. The transfected cells were selected for two weeks in media containing G418 (400 μg/ml) to obtain a pool of stably transfected cells. Independent clones were isolated from this pool by limiting dilution to obtain clonal stable cell lines for use in subsequent experiments.
Cells transfected with expression plasmids (as described in Example 4) and thereby expressing human capsaicin receptor are seeded and grown to 70-90% confluency in FALCON black-walled, clear-bottomed 96-well plates (#3904, BECTON-DICKINSON, Franklin Lakes, N.J.). The culture medium is emptied from the 96 well plates and FLUO-3 AM calcium sensitive dye (Molecular Probes, Eugene, Oreg.) is added to each well (dye solution: 1 mg FLUO-3 AM, 440 μL DMSO and 440 μl 20% pluronic acid in DMSO, diluted 1:250 in Krebs-Ringer HEPES (KRH) buffer (25 mM HEPES, 5 mM KCl, 0.96 mM NaH2PO4, 1 mM MgSO4, 2 mM CaCl2, 5 mM glucose, 1 mM probenecid, pH 7.4), 50 μl diluted solution per well). Plates are covered with aluminum foil and incubated at 37° C. for 1-2 hours in an environment containing 5% CO2. After the incubation, the dye is emptied from the plates, and the cells are washed once with KRH buffer, and, resuspended in KRH buffer.
Agonist (e.g., olvanil, capsaicin, or RTX)-induced calcium mobilization is monitored using either FLUOROSKAN ASCENT (Labsystems, Franklin, Mass.) or FLIPR (fluorometric imaging plate reader system, Molecular Devices, Sunnyvale, Calif.) instruments. Varying concentrations of the antagonists ruthenium red or capsazepine (RBI; Natick, Mass.) are added to cells concurrently with agonist (e.g., 25-50 nM capsaicin). For agonist-induced calcium responses, data obtained between 30 and 60 seconds after agonist application are used to generate the IC50 values. KALEIDAGRAPH software (Synergy Software, Reading, Pa.) is used to fit the data to the equation: y=a*(1/(1+(b/x)^c)) to determine the IC50 for the response. In this equation, y is the maximum fluorescence signal, x is the concentration of the agonist or antagonist, a is the Emax, b corresponds to the IC50 value and c is the Hill coefficient.
To measure the ability of a test compound to antagonize (inhibit) the response of cells expressing capsaicin receptors to capsaicin or other vanilloid agonist, the IC50 of capsaicin is first determined. An additional 20 μl of KRH buffer and 1 μl DMSO is added to each well of cells, prepared as described above. 100 μl capsaicin in KRH buffer is automatically transferred by the FLIPR instrument to each well. An 8-point concentration response curve, with final capsaicin concentrations of 1 nM to 3 μM, is used to determine capsaicin IC50.
Test compounds are dissolved in DMSO, diluted in 20 μl KRH buffer so that the final concentration of test compounds in the assay well is between 1 μM and 5 μM, and added to cells prepared as described above. The 96 well plates containing prepared cells and test compounds are incubated in the dark, at room temperature for 0.5 to 6 hours. It is important that the incubation not continue beyond 6 hours. Just prior to determining the fluorescence response, 100 μl capsaicin in KRH buffer at twice the IC50 concentration determined from the concentration response curve is automatically added by the FLIPR instrument to each well of the 96 well plate for a final sample volume of 200 μl and a final capsaicin concentration equal to the IC50. The final concentration of test compounds in the assay wells is between 1 μM and 5 μM. […] Antagonists of the capsaicin receptor decrease this response by at least about 20%, preferably by at least about 50%, and most preferably by at least 80% as compared to matched control. The concentration of antagonist required to provide a 50% decrease is the IC50 for the antagonist, and is preferably below 1 micromolar, 100 nanomolar, 10 nanomolar or 1 nanomolar. […]

T1 sequence (Q8NER1 whole entry): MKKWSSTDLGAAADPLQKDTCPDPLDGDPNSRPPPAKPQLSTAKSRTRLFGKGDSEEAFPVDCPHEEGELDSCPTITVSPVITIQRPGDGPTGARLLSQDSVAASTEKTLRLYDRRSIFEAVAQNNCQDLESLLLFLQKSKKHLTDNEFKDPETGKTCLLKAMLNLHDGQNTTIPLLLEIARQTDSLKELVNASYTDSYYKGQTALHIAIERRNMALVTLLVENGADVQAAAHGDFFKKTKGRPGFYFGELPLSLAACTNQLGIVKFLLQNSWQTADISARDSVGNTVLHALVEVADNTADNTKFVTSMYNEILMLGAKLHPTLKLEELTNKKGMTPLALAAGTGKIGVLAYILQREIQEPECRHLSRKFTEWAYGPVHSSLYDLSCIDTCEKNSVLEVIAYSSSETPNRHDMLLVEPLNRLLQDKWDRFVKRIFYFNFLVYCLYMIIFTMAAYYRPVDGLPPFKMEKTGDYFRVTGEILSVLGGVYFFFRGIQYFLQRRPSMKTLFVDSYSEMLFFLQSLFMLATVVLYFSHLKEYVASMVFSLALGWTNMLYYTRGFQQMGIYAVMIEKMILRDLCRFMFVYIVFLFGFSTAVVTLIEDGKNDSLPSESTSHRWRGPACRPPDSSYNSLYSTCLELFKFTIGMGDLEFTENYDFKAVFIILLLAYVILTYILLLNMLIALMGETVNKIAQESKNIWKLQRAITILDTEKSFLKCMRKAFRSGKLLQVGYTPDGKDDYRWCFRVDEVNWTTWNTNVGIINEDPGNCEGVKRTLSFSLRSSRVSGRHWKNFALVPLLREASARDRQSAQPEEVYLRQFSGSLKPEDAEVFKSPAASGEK

Row | IC50 [nM] | Compound
1 | ≤ 1000 | FC(F)(F)c1cnc(Nc2ccnc3nc(-c4ncccc4Cl)ccc23)cn1 [Compound 138, 7-(3-chloropyridin-2-yl)-N-[5-(trifluoromethyl)pyrazin-2-yl]-1,8-naphthyridin-4-amine]
2 | ≤ 1000 | COCc1cc(Nc2ccc(Cl)cc2)c2ccc(-c3ncccc3C(F)(F)F)nc2n1 [Compound 8, N-(4-chlorophenyl)-2-(methoxymethyl)-7-[3-(trifluoromethyl)pyridin-2-yl]-1,8-naphthyridin-4-amine]
3 | ≤ 1000 | CCCc1cc(Nc2ccc(C(C)=O)cn2)c2ccc(-c3ncccc3C(F)(F)F)nc2n1 [Compound 115, 1-[6-({2-propyl-7-[3-(trifluoromethyl)pyridin-2-yl]-1,8-naphthyridin-4-yl}amino)pyridin-3-yl]ethanone]
4 | ≤ 1000 | FC(F)(F)c1ccc(Nc2ccnc3nc(-c4ncccc4C(F)(F)F)ccc23)cn1 [Compound 142, 7-[3-(trifluoromethyl)pyridin-2-yl]-N-[6-(trifluoromethyl)pyridin-3-yl]-1,8-naphthyridin-4-amine]
5 | ≤ 1000 | CC(C)(C)c1ccc(Nc2cc(N3CCOCC3)nc3cc(-c4ncccc4C(F)(F)F)ccc23)cc1 [Compound 23, N-(4-tert-butylphenyl)-2-morpholin-4-yl-7-[3-(trifluoromethyl)pyridin-2-yl]quinolin-4-amine]
6 | ≤ 1000 | COCc1cc(Nc2ccc(S(=O)(=O)C(F)(F)F)cc2)c2ccc(-c3ncccc3C(F)(F)F)nc2n1 [Compound 15, 2-(methoxymethyl)-7-[3-(trifluoromethyl)pyridin-2-yl]-N-{4-[(trifluoromethyl)sulfonyl]phenyl}-1,8-naphthyridin-4-amine]
7 | ≤ 1000 | FC(F)(F)c1cccnc1-c1ccc2c(Nc3ccc(Cl)cn3)cc(C3CCC3)nc2n1 [Compound 101, N-(5-chloropyridin-2-yl)-2-cyclobutyl-7-[3-(trifluoromethyl)pyridin-2-yl]-1,8-naphthyridin-4-amine]
8 | ≤ 1000 | COCc1cc(Nc2ccc(C(F)(F)F)cn2)c2ccc(-c3ncccc3C(F)(F)F)nc2n1 [Compound 14, 2-(methoxymethyl)-7-[3-(trifluoromethyl)pyridin-2-yl]-N-[5-(trifluoromethyl)pyridin-2-yl]-1,8-naphthyridin-4-amine]
9 | ≤ 1000 | CC(C)CN(C)Cc1cc(Nc2ccc(C(F)(F)F)cc2)c2ccc(-c3ncccc3C(F)(F)F)nc2n1 [Compound 60, 2-{[isobutyl(methyl)amino]methyl}-N-[4-(trifluoromethyl)phenyl]-7-[3-(trifluoromethyl)pyridin-2-yl]-1,8-naphthyridin-4-amine]
10 | ≤ 1000 | CC(=O)c1ccc(Nc2cc(C(C)C)nc3nc(-c4ncccc4C(F)(F)F)ccc23)nc1 [Compound 116, 1-[6-({2-isopropyl-7-[3-(trifluoromethyl)pyridin-2-yl]-1,8-naphthyridin-4-yl}amino)pyridin-3-yl]ethanone]
11 | ≤ 1000 | FC(F)(F)c1ccc(Nc2cc(Cl)nc3nc(-c4ncccc4C(F)(F)F)ccc23)cc1 [Compound 34, 2-chloro-N-[4-(trifluoromethyl)phenyl]-7-[3-(trifluoromethyl)pyridin-2-yl]-1,8-naphthyridin-4-amine]
12 | ≤ 1000 | OCc1cc(Nc2ccc(C(F)(F)F)cc2)c2ccc(-c3ncccc3C(F)(F)F)nc2n1 [Compound 5, {4-{[4-(trifluoromethyl)phenyl]amino}-7-[3-(trifluoromethyl)pyridin-2-yl]-1,8-naphthyridin-2-yl}methanol]
13 | ≤ 1000 | CC(C)N(CCCO)Cc1cc(Nc2ccc(C(F)(F)F)cc2)c2ccc(-c3ncccc3C(F)(F)F)nc2n1 [Compound 78, 3-[isopropyl({4-{[4-(trifluoromethyl)phenyl]amino}-7-[3-(trifluoromethyl)pyridin-2-yl]-1,8-naphthyridin-2-yl}methyl)amino]propan-1-ol]
14 | ≤ 1000 | CC(=O)c1cc(Nc2ccc(C(F)(F)F)cn2)c2ccc(-c3ncccc3C(F)(F)F)nc2n1 [Compound 133, 1-(7-[3-(trifluoromethyl)pyridin-2-yl]-4-{[5-(trifluoromethyl)pyridin-2-yl]amino}-1,8-naphthyridin-2-yl)ethanone]
15 | ≤ 1000 | CC(C)c1cc(Nc2ccc(Cl)cn2)c2ccc(-c3ncccc3C(F)(F)F)nc2n1 [Compound 105, N-(5-chloropyridin-2-yl)-2-isopropyl-7-[3-(trifluoromethyl)pyridin-2-yl]-1,8-naphthyridin-4-amine]
16 | ≤ 1000 | CC(C)(C)c1ccc(Nc2cc(O)nc3cc(-c4ncccc4C(F)(F)F)ccc23)cc1 [Compound 21, 4-[(4-tert-butylphenyl)amino]-7-[3-(trifluoromethyl)pyridin-2-yl]quinolin-2-ol]
17 | ≤ 1000 | CN1CCCC(c2cc(Nc3ccc(C(F)(F)F)cn3)c3ccc(-c4ncccc4C(F)(F)F)nc3n2)C1 (stereo not shown) [Compound 124, 2-(1-methylpiperidin-3-yl)-7-[3-(trifluoromethyl)pyridin-2-yl]-N-[5-(trifluoromethyl)pyridin-2-yl]-1,8-naphthyridin-4-amine]
18 | ≤ 1000 | Cc1ccc(Nc2cc(C3CCC3)nc3nc(-c4ncccc4C(F)(F)F)ccc23)nc1 [Compound 99, 2-cyclobutyl-N-(5-methylpyridin-2-yl)-7-[3-(trifluoromethyl)pyridin-2-yl]-1,8-naphthyridin-4-amine]
19 | ≤ 1000 | N#Cc1ccc(Nc2cc(C3CCC3)nc3nc(-c4ncccc4C(F)(F)F)ccc23)nc1 [Compound 100, 6-({2-cyclobutyl-7-[3-(trifluoromethyl)pyridin-2-yl]-1,8-naphthyridin-4-yl}amino)nicotinonitrile]
20 | ≤ 1000 | CC(C)OCc1cc(Nc2ccc(C(F)(F)F)cc2)c2ccc(-c3ncccc3C(F)(F)F)nc2n1 [Compound 41, 2-(isopropoxymethyl)-N-[4-(trifluoromethyl)phenyl]-7-[3-(trifluoromethyl)pyridin-2-yl]-1,8-naphthyridin-4-amine]
21 | ≤ 1000 | CCOc1cc(Nc2ccc(C(C)(C)C)cc2)c2ccc(-c3ncccc3C(F)(F)F)cc2n1 [Compound 30, N-(4-tert-butylphenyl)-2-ethoxy-7-[3-(trifluoromethyl)pyridin-2-yl]quinolin-4-amine]

Row | Compound | IC50 [nM]
22 | CC(C)COCc1cc(Nc2ccc(S(=O)(=O)C(C)C)cc2)c2ccc(-c3ncccc3C(F)(F)F)nc2n1 [Compound 72, 2-(isobutoxymethyl)-N-[4-(isopropylsulfonyl)phenyl]-7-[3-(trifluoromethyl)pyridin-2-yl]-1,8-naphthyridin-4-amine] | ≤ 1000
23 | CC(C)COCc1cc(Nc2ccc(Br)cn2)c2ccc(-c3ncccc3C(F)(F)F)nc2n1 [Compound 61, N-(5-bromopyridin-2-yl)-2-(isobutoxymethyl)-7-[3-(trifluoromethyl)pyridin-2-yl]-1,8-naphthyridin-4-amine] | ≤ 1000
24 | CC(=O)c1ccc(Nc2cc(COCC(C)C)nc3nc(-c4ncccc4Cl)ccc23)cc1 [Compound 63, 1-(4-{[7-(3-chloropyridin-2-yl)-2-(isobutoxymethyl)-1,8-naphthyridin-4-yl]amino}phenyl)ethanone] | ≤ 1000
25 | CC(C)COCc1cc(Nc2ccc(C(C)(C)O)cc2)c2ccc(-c3ncccc3C(F)(F)F)nc2n1 [Compound 57, 2-[4-({2-(isobutoxymethyl)-7-[3-(trifluoromethyl)pyridin-2-yl]-1,8-naphthyridin-4-yl}amino)phenyl]propan-2-ol] | ≤ 1000
